Test results: US20090170762A1, “Treatment of Diabetes Related Obesity” (UUTech Limited, priority 2005, published 2009)
“Also recorded” adds a separate entry of the source. Ends that are not written are not given here.

How the values were obtained:
BRIN-BD11 cells = test: Insulin secretion from BRIN-BD11 cells; assay type: cell-based
Method: Tissue Culture. Chinese Hamster Lung (CHL) fibroblast cells stably transfected with the human GIP-R were cultured in DMEM tissue culture medium containing 10%. (v/v) fetal bovine serum, 1% (v/v) antibiotics (100 U/ml penicillin, 0.1 mg/ml streptomycin) (all from Gibco, Paisley, Strathclyde, Scotland). BRIN-BD11 cells were cultured in RPMI-1640 tissue culture medium containing 10% (v/v) fetal bovine serum, 1% (v/v) antibiotics (100 U/ml penicillin, 0.1 mg/ml streptomycin) and 11.1 mm glucose. The origin and secretory characteristics of these cells have been described in detail previously (McClenaghan, N. H. et al., 1996, Diabetes 45:1132-1140). The cells were maintained in sterile tissue culture flasks (Corning Glass Works, Sunderland, UK) at 37° C. in an atmosphere of 5% CO2 and 95% air using a LEEC incubator (Laboratory Technical Engineering, Nottingham, UK).
Methods. Insulin release from BRIN-BD11 cells was determined by use of cell monolayers as described previously (Gault, V. A. et al. 2002, Biochem. J. 367:913-920). In brief, BRIN-BD11 cells were seeded into 24-well plates (Nunc, Roskilde, Denmark) at a density of 1.5×10^5 cells per well and allowed to attach overnight in RPMI-1640 culture medium at 37° C. Acute tests for insulin secretion were preceded by 40 minutes pre-incubation at 37° C. in 1.0 ml Krebs Ringer Bicarbonate Buffer (KRBB, 115 mm NaCl, 4.7 mm KCl, 1.28 mm CaCl2, 1.2 mM MgSO4, 1.2 mm KH2PO4, 25 mM HEPES and 10 mm NaHCO3; pH 7.4 with NaOH) supplemented with 0.1% (w/v) BSA and 1.1 mM glucose. […] After 20 minutes incubation, the buffer was removed and used for measurement of insulin by radioimmunoassay (Flatt, P. R. and Bailey, C. J., 1981, Diabetologia 5:573-577).

ob/ob mice = test: Daily (Pro3)GIP for 60 days in young ob/ob mice; assay type: in vivo, mouse
Method: (§1) Young obese diabetic (ob/ob) mice derived from the colony maintained at Aston University, UK (Bailey, C. J. et al., 1982, Int. J. Obes. 6:11-21) were used at 5-7 weeks of age. Normal lean control mice from the same colony were used in comparative experiments (See Example 6, below). Animals were age-matched, divided into groups and housed individually in an air-conditioned room at 22±2° C. with a 12 hours light:12 hours dark cycle (08:00-20:00 hours). Drinking water and a standard rodent maintenance diet (Trouw Nutrition, Cheshire, UK) were freely available. In a separate experiment, Swiss Tylers Original (TO) mice purchased from Harlan Ltd. (Bicester, UK) were used at 5-7 weeks of age. Animals were housed as for ob/ob mice and given drinking water ad libitum. Normal TO mice were allowed free access to fed high fat diet (45% fat, 20% protein, 35% carbohydrate, 26.15 MJ/kg), high carbohydrate diet (10% fat, 20% protein, 70% carbohydrate, 18.80 MJ/kg) (Special Diets Service, Witham, Essex, UK), cafeteria diet (corresponding to approximately 33% fat, 19% protein, 48% carbohydrate, 16.39 MJ/kg) or normal rodent maintenance diet (10% fat, 30% protein, 60% carbohydrate; 14.2 MJ/kg, Trouw Nutrition, Cheshire, UK). The cafeteria diet comprised 6 daily rotations of 2 palatable food items per day (2 from: tuna, peanut butter, crisps, chocolate biscuits, madera cake, chocolate, luncheon meat, sausages, corned beef, cheese, marzipan). All animal experiments were carried out in accordance with the UK Animals (Scientific Procedures) Act 1986.
(§2) Food intake and body weight were recorded daily while plasma glucose and insulin concentrations were monitored at intervals of 3-6 days. Whole blood for the measurement of glycated hemoglobin was taken on day 60. In addition, plasma samples for measurement of cholesterol, circulating triglycerides, HDL-cholesterol (HDL-C) and LDL-cholesterol (LDL-C) were taken on day 60. […] Mice fasted for 18 hours were used to examine the metabolic response to 15 minutes feeding on day 60. In a separate series, pancreatic tissues were excised at the end of the 60-day treatment period and processed for immunohistochemistry or measurement of insulin following extraction with 5 ml/g of ice-cold acid ethanol (750 ml ethanol, 235 ml water, 15 ml concentrated HCl). Blood samples taken from the cut tip of the tail vein of conscious mice at the times indicated in the Figures were immediately centrifuged using a Beckman microcentrifuge (Beckman instruments, UK) for 30 seconds at 13,000×g. The resulting plasma was then aliquoted into fresh Eppendorf tubes and stored at −20° C. prior to glucose and insulin determinations. Normal control mice from the same genetic background were used for comparative purposes. […] Body weights were recorded daily and blood for determination of glycated hemoglobin was collected at end of study period.
(§3) Plasma glucose was assayed by an automated glucose oxidase procedure (Stevens, J. F., 1971, Clin. Chem. Acta 32:199-201) using a Beckman Glucose Analyzer II (Beckman Instruments, Galway, Ireland). Plasma and pancreatic insulin were assayed by a modified dextran-coated charcoal radioimmunoassay (Flatt, P. R., Bailey, C. J., 1981, Diabetologia 20:573-577). Plasma triglyceride and cholesterol levels were measured using a Hitachi Automatic Analyser 912 (Boehringer Mannheim, Germany). Glycated hemoglobin was determined using a commercially available kit purchased from Chirus Ltd. (Watford, UK).
Results are expressed as mean±SEM. Data were compared using ANOVA, followed by a Student-Newman-Keuls post hoc test. Area under the curve (AUC) analyzes were calculated using the trapezoidal rule with baseline subtraction. P<0.05 was considered to be statistically significant.

Swiss TO mice = test: Daily (Pro3)GIP for 90 days in normal (TO) mice fed high fat, cafeteria, high carbohydrate or normal diets; assay type: in vivo, mouse; conditions: for Glycated Hemoglobin (%): 25 nmol/kg bw/day
Method: as §1, §2, §3
Normal mice were fed the different diets indicated above ad libitum from 4-5 weeks of age. Treated groups of mice received intraperitoneal injection of ProGIP (25 nmoles/kg body weight) each day.

[1] = normal mice fed high fat or cafeteria diets, 90 days

YAPGTFISDYSIAMDKIHQQDFVNWLLAQKGKKNDWKHNITQ [(Pro^3)GIP]
Maximal insulin response (% GIP max) (BRIN-BD11 cells; BRIN-BD11 cells, 5.6 mm glucose, 20 min): 53 ± 5 % GIP max
Insulin response in presence of 10^-7 M GIP (% GIP max) (BRIN-BD11 cells; BRIN-BD11 cells, 5.6 mm glucose, in presence of 10^-7 M native GIP): 64 ± 2 % GIP max
effect on GIP-stimulated insulin secretion (BRIN-BD11 cells; in presence of GIP (10^-7 m)): significantly inhibited
body weight gain (ob/ob mice; 5-7 weeks old ob/ob mice, standard diet, 60 days): progressive decrease in body weight gain
plasma insulin levels after 15 minute feeding (ob/ob mice; 18 h fasted ob/ob mice, 60 days, vs saline): not significantly different
plasma glucose responses to 15 minute feeding (ob/ob mice; 18 h fasted ob/ob mice, 60 days, 15, 30, 60 and 105 min): significantly lowered
decrease in body weight (ob/ob mice; ob/ob mice, 25 nmol/kg/day i.p., 60 days, vs saline, did not reach significance): ~17%
effect on food intake (ob/ob mice; ob/ob mice, 25 nmol/kg/day, 60 days, vs saline): no effect; also recorded: without changing food intake
cholesterol levels (ob/ob mice; ob/ob mice, 60 days, vs saline): unaltered
circulating triglyceride concentrations (ob/ob mice; ob/ob mice, 60 days, vs saline): significantly (P<0.05) reduced
enhanced insulin sensitivity (ob/ob mice; ob/ob mice, 60 days, vs saline): 1.5 fold
lowering of overall plasma glucose response to feeding (ob/ob mice; ob/ob mice, 60 days, vs saline): 1.7 fold
lowering of overall plasma glucose response to intraperitoneal glucose load (ob/ob mice; ob/ob mice, 60 days, vs saline): 1.9 fold
pancreatic insulin content (ob/ob mice; ob/ob mice, 60 days, vs saline): significantly (P<0.01) decreased
pancreatic weight (ob/ob mice; ob/ob mice, 60 days, vs saline): no effect
reduced pancreatic insulin content (ob/ob mice; ob/ob mice, 60 days, vs saline): 1.5 fold
levels of LDL-C (ob/ob mice; ob/ob mice, 60 days, vs saline, LDL-C calculated by Friedewald equation): significantly reduced
plasma glucose concentrations following intraperitoneal glucose (ob/ob mice; ob/ob mice, 60 days, 0, 15, 30 and 60 min after glucose 18 mmol/kg): significantly reduced
plasma insulin concentrations following intraperitoneal glucose (ob/ob mice; ob/ob mice, 60 days, 15 min after glucose 18 mmol/kg): significantly (P<0.05) reduced
hypoglycemic action of insulin (insulin sensitivity) (ob/ob mice; ob/ob mice, 60 days, insulin 50 U/kg i.p.): significantly (P<0.05) augmented
overall glycaemic excursion and insulinotropic response to glucose together with native GIP (ob/ob mice; ob/ob mice, 60 days, native GIP 25 nmoles/kg): significant decrease
glycated hemoglobin (ob/ob mice; ob/ob mice, after 60 days treatment): 4.1±0.1%
non-fasting plasma glucose (ob/ob mice; ob/ob mice, day 14 to day 60, vs saline): significantly reduced
non-fasting plasma insulin (ob/ob mice; ob/ob mice, day 44, vs saline): significantly lowered
Glycated Hemoglobin (%) (Swiss TO mice; Cafeteria diet, 90 days): 4.0 ± 0.32 %
Glycated Hemoglobin (%) (Swiss TO mice; High Carbohydrate diet, 90 days): 4.3 ± 0.12%
Glycated Hemoglobin (%) (Swiss TO mice; High Fat diet, 90 days): 4.0 ± 0.21 %
Glycated Hemoglobin (%) (Swiss TO mice; Normal diet, 90 days): 3.9 ± 0.14%
body weight and glycated hemoglobin (parameters measured) (Swiss TO mice; high carbohydrate or normal diets): did not affect
body weight gain induced by excessive energy intake (Swiss TO mice; high fat diet, lesser extent cafeteria diet): counters body weight gain
decrease in body weight (Swiss TO mice; [1]): up to 20%
decrease in glycated hemoglobin (Swiss TO mice; [1]): greater than 1%
